We go through 28 molecules from PubChem BioAssay AID652187 (Sanford-Burnham Center for Chemical Genomics, 2013).

Calls of active or inactive are those of the source.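 The calls were made as follows: active = IC50 of 25 µM or lower, counted as toxic to worms; inactive = the rest.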 Bounds are passed on as bounds.

The data set deals with C. elegans VP596 worms, composite health score, 20-22 h. Put plainly: nematode cytotoxicity of SKN-1 inhibitor analogs – whole organism, strain VP596, composite health score, round 1, cytotoxicity control for SKN-1 inhibitor project, SAR follow-up (AID 652187).
As for `COc1ccc(-c2csc(-c3ccncc3)n2)cc1`, the IC50 was > 64 µM (inactive).
For `CCOc1cc(CNC2CC2)cc(Cl)c1OCc1ccc(F)cc1`, the IC50 is > 64 µM (inactive).
In the case of `c1ccc(-c2csc(-c3ccncc3)n2)cc1`, the IC50 was > 64 µM (inactive).
The result for `CCOc1cc(CNC2CCC2)cc(Cl)c1OCc1ccc(F)cc1` reads > 64 µM (inactive); that for `Fc1ccc(-c2csc(-c3cccnc3)n2)cc1`, > 64 µM (inactive); that for `Cc1ccc(-c2csc(-c3cccnc3)n2)cc1`, 61.1 µM (inactive).
Consider `COc1ccc(-c2csc(-c3cccnc3)n2)cc1`, for which the IC50 is > 64 µM (inactive).
With `CCOc1cc(CNC2CCCC2)cc(Cl)c1OCc1ccc(Cl)cc1`, the IC50 is > 64 µM (inactive).
As to `CCOc1cc(CNC2CCCC2)ccc1OCc1ccc(F)cc1`, the IC50 was > 64 µM (inactive).
As for `CCOc1cc(CNC2CCCC2)cc(Cl)c1OCc1ccccc1Cl`, the IC50 was > 64 µM (inactive).
For `Cc1ccc(-c2csc(-c3ccncc3)n2)cc1`, the IC50 was > 64 µM (inactive).
`CCOc1cc(CNC2CCCC2)cc(Cl)c1OCc1cccc(F)c1`: the IC50 is > 64 µM (inactive).
The figure for `CCOc1cc(C(=O)NC2CCCC2)cc(Cl)c1OCc1ccc(F)cc1` is > 64 µM (inactive); for `Clc1ccc(-c2csc(-c3cccnc3)n2)cc1` it is > 64 µM (inactive).
The result for `Clc1ccc(-c2csc(-c3ccncc3)n2)cc1` reads < 64 µM (inactive); that for `CCOc1cc(CNc2ccccc2)cc(Cl)c1OCc1ccc(F)cc1`, > 64 µM (inactive); that for `CCOc1cc(CNC(C)C)cc(Cl)c1OCc1ccc(F)cc1`, > 64 µM (inactive).
Turning to `CCOc1cc(CNC2CCCCC2)cc(Cl)c1OCc1ccc(F)cc1`, the IC50 is > 64 µM (inactive).
The figure for `COc1cc(CNC2CCCC2)cc(Cl)c1OCc1ccc(F)cc1` is > 64 µM (inactive); for `CCOc1cc(CNCc2ccccc2)cc(Cl)c1OCc1ccc(F)cc1` it is > 64 µM (inactive); for `CCOc1cc(CNC2CCCC2)cc(Cl)c1OCc1ccc(C)cc1` it is > 64 µM (inactive).
As for `CCOc1cc(CNC2CCCC2)cc(Cl)c1OCc1ccccc1F`, the IC50 was > 64 µM (inactive).
In the case of `Fc1ccc(-c2csc(-c3ccncc3)n2)cc1`, the IC50 was > 64 µM (inactive).
The result for `c1ccc(-c2csc(-c3cccnc3)n2)cc1` reads 63.3 µM (inactive); that for `Fc1ccc(COc2ccc(CNC3CCCC3)cc2Cl)cc1`, > 64 µM (inactive); that for `CCOc1cc(CNC2CCCC2)cc(Cl)c1OC`, > 64 µM (inactive).
With `CCOc1cc(CNC2CCCC2)cc(Cl)c1OCc1ccc(OC)cc1`, the IC50 is > 64 µM (inactive).
The result for `CCOc1cc(CNC2CCCC2)cc(Cl)c1OCc1ccc(F)cc1` reads > 64 µM (inactive).

For orientation: IC50 means the concentration that gives 50% inhibition.
